Results taken from ChEMBL document CHEMBL1121624, “Synthesis, biological evaluation, and preliminary structure-activity considerations of a series of alkylphenols as intravenous anesthetic agents” (J Med Chem, 1980).

Assays:
[1] = species: Mus musculus; test: Hypnotic activity was measured as dose which causes loss of righting reflex for a minimum period of 30s in 50% of mice; Range is 20-30; format: functional
[2] = Acute toxicity measured as median lethal dose in mice; Range is 120-140; format: organism-based; conditions: mouse, in vivo
[3] = species: Mus musculus; test: Duration of analgesic action in mice was determined; B = brief, < 5 min; format: functional, organism-based
[4] = species: Mus musculus; test: Speed of induction of analgesia in mice was determined; I = immediate, <10 s; format: functional, organism-based
[5] = Acute toxicity measured as median lethal dose in mice; format: organism-based; conditions: mouse, in vivo
[6] = species: Mus musculus; test: Hypnotic activity was measured as dose which causes loss of righting reflex for a minimum period of 30s in 50% of mice; Range is 40-60; format: functional
[7] = species: Mus musculus; test: Hypnotic activity was measured as dose which causes loss of righting reflex for a minimum period of 30s in 50% of mice; Range is 80-100; format: functional
[8] = species: Mus musculus; test: Speed of induction of analgesia in mice was determined; VS = very slow, > 15s; format: functional, organism-based
[9] = Acute toxicity measured as median lethal dose in mice; Range is 140-160; format: organism-based; conditions: mouse, in vivo
[10] = species: Mus musculus; test: Hypnotic activity was measured as dose which causes loss of righting reflex for a minimum period of 30s in 50% of mice; Range is 30-40; format: functional
[11] = species: Mus musculus; test: Acute toxicity measured as median lethal dose in mice; Range is 80-90; format: organism-based; conditions: in vivo
[12] = species: Mus musculus; test: Hypnotic activity was measured as dose which causes loss of righting reflex for a minimum period of 30s in 50% of mice; format: functional
[13] = Acute toxicity measured as median lethal dose in mice; Range is 160-180; format: organism-based; conditions: mouse, in vivo
[14] = Acute toxicity measured as median lethal dose in mice; Range is 100-120; format: organism-based; conditions: mouse, in vivo
[15] = Acute toxicity measured as median lethal dose in mice; Range is 40-60; format: organism-based; conditions: mouse, in vivo
[16] = species: Mus musculus; test: Duration of analgesic action in mice was determined; M = moderate, 5-10 min; format: functional, organism-based
[17] = species: Mus musculus; test: Hypnotic activity was measured as dose which causes loss of righting reflex for a minimum period of 30s in 50% of mice; Range is 20-40; format: functional
[18] = species: Mus musculus; test: Hypnotic activity was measured as dose which causes loss of righting reflex for a minimum period of 30s in 50% of mice; Range is 15-20; format: functional
[19] = species: Mus musculus; test: Duration of analgesic action in mice was determined; L = long, >10; format: functional, organism-based
[20] = Acute toxicity measured as median lethal dose in mice; Range is 40-45; format: organism-based; conditions: mouse, in vivo
[21] = species: Mus musculus; test: Hypnotic activity was measured as dose which causes loss of righting reflex for a minimum period of 30s in 50% of mice; Range is 1-1.5; format: functional
[22] = species: Mus musculus; test: Hypnotic activity was measured as dose which causes loss of righting reflex for a minimum period of 30s in 50% of mice; Range is 5-10; format: functional
[23] = species: Mus musculus; test: Hypnotic activity was measured as dose which causes loss of righting reflex for a minimum period of 30s in 50% of mice; Range is 60-80; format: functional

SMILES: CC(C)c1cccc(C2CC2)c1O
- HD50 [1]: 20 mg/kg
- LD50 [2]: 120 mg/kg
- Duration of action [3]: Brief duration
- Speed of induction [4]: Immediate

SMILES: CC(C)c1ccc(O)c(C(C)C)c1
- LD50 [5]: 120 mg/kg
- HD50 [6]: 40 mg/kg

SMILES: CC(C)(C)c1cccc(C(C)(C)C)c1O
- HD50 [7]: 80 mg/kg
- LD50 [5]: 120 mg/kg

SMILES: Cc1cccc(C2CCCCC2)c1O
- Duration of action [3]: Brief duration
- Speed of induction [8]: Very slow
- LD50 [9]: 140 mg/kg
- HD50 [10]: 30 mg/kg

SMILES: CCCC(C)C1(CC)C(=O)[N-]C(=S)NC1=O.[Na+] (stereo in doubt; form 1) [THIOPENTAL SODIUM]
- LD50 [11]: 80 mg/kg

SMILES: Cc1cc(C)c(C(C)C)c(O)c1C(C)C
- HD50 [12]: 120 mg/kg
- LD50 [13]: 160 mg/kg

SMILES: Cc1ccc(C(C)C)c(O)c1 [THYMOL]
- HD50 [12]: 30 mg/kg

SMILES: CCCC(C)C1(CC)C(=O)NC(=S)NC1=O (stereo in doubt; form 1)
- Duration of action [3]: Brief duration
- Speed of induction [4]: Immediate

SMILES: CC(C)c1ccccc1O
- LD50 [14]: 100 mg/kg
- HD50 [10]: 30 mg/kg

SMILES: CCCCc1c(C)ccc(C(C)C)c1O
- HD50 [12]: 50 mg/kg
- LD50 [5]: 150 mg/kg

SMILES: CCCCc1cccc(C(C)C)c1O
- HD50 [12]: 20 mg/kg
- Duration of action [3]: Brief duration
- LD50 [5]: 100 mg/kg
- Speed of induction [4]: Immediate

SMILES: CCC(C)c1ccc(O)cc1 (centres undefined)
- LD50 [15]: 40 mg/kg

SMILES: CCCCc1cccc(C(C)CC)c1O (centres undefined)
- HD50 [1]: 20 mg/kg
- LD50 [5]: 120 mg/kg
- Duration of action [16]: Moderate
- Speed of induction [8]: Very slow

SMILES: CC(C)(C)c1ccc(O)c(C(C)(C)C)c1
- LD50 [14]: 100 mg/kg
- HD50 [6]: 40 mg/kg

SMILES: CCCc1cccc(CC)c1O
- HD50 [17]: 20 mg/kg
- Duration of action [3]: Brief duration
- LD50 [5]: 100 mg/kg
- Speed of induction [8]: Very slow

SMILES: CCCC(C)c1cccc(C(C)CCC)c1O (centres undefined)
- LD50 [13]: 160 mg/kg
- HD50 [18]: 15 mg/kg
- Speed of induction [8]: Very slow
- Duration of action [19]: Long

SMILES: Cc1cccc(C(C)C)c1O
- HD50 [1]: 20 mg/kg
- Duration of action [3]: Brief duration
- LD50 [5]: 80 mg/kg
- Speed of induction [4]: Immediate

SMILES: CCOC(=O)c1cncn1[C@H](C)c1ccccc1 [ETOMIDATE]
- LD50 [20]: 40 mg/kg
- Duration of action [3]: Brief duration
- Speed of induction [4]: Immediate induction
- HD50 [21]: 1 mg/kg

SMILES: Cc1cc(C(C)(C)C)c(O)c(C(C)(C)C)c1 [BUTYLATED HYDROXYTOLUENE]
- HD50 [7]: 80 mg/kg

SMILES: CCCc1cccc(CCC)c1O
- HD50 [1]: 20 mg/kg
- Duration of action [3]: Brief duration
- LD50 [5]: 100 mg/kg
- Speed of induction [4]: Immediate

SMILES: CCC(C)c1ccccc1O (centres undefined)
- HD50 [10]: 30 mg/kg

SMILES: CCC(C)c1cccc(C(C)C)c1O (centres undefined)
- Duration of action [3]: Brief duration
- LD50 [5]: 50 mg/kg
- Speed of induction [4]: Immediate
- HD50 [22]: 5 mg/kg

SMILES: Cc1ccc(O)c(C(C)(C)C)c1
- HD50 [12]: 30 mg/kg

SMILES: Cc1ccc(O)c(C)c1
- LD50 [14]: 100 mg/kg
- HD50 [10]: 30 mg/kg

SMILES: CCc1c(C)cc(C)c(CC)c1O
- LD50 [5]: 160 mg/kg
- HD50 [23]: 60 mg/kg

SMILES: Oc1ccccc1 [PHENOL]
- HD50 [12]: 70 mg/kg
- LD50 [5]: 100 mg/kg

SMILES: CCCCC(C)c1cccc(CCC)c1O (centres undefined)
- HD50 [12]: 50 mg/kg
- LD50 [5]: 140 mg/kg
- Duration of action [16]: Moderate
- Speed of induction [8]: Very slow

SMILES: Cc1c(C(C)C)ccc(C(C)C)c1O
- HD50 [12]: 20 mg/kg
- LD50 [5]: 100 mg/kg

SMILES: CCCC(C)c1ccccc1O (centres undefined)
- HD50 [1]: 20 mg/kg
- LD50 [5]: 100 mg/kg
